Source: US5574070A, “Substituted guanidines having high binding to the sigma receptor and the use thereof” (priority 1993, dated 1996)
“Also recorded” adds a separate entry of the source. Counter-ions that a name gives are not always drawn. Like-named read-outs stand apart in the source and are kept apart here.

Biological target: sigma receptor
Assay: [3H]DTG displacement radioligand binding assay, guinea pig brain membranes
[1] = list of especially preferred compounds, read-out: IC50 (high binding to the sigma receptor)
[2] = Example 25, guinea pig brain membrane homogenates, read-out: IC50 binding values
[3] = read-out: IC50 vs [3H]DTG, Table I, guinea pig brain membranes

| Compound | IC50 [1] | in vitro [3H]DTG displacement activity | IC50 [2] | further results |
| --- | --- | --- | --- | --- |
| CNCCC=C1c2ccccc2CCc2ccccc21 [Nortriptyline, reference compound] | – | – | – | IC50 (read-out: IC50 vs. [3H]DTG): 2000 nM |
| picrotoxin [reference compound] | – | – | – | displacement of [3H]DTG (10 uM): no significant displacement |
| CCc1cccc(N2CCN(c3cccc(CC)c3)C2=N)c1 [N,N'-Bis (3-ethylphenyl)-2-imino-imidazolidine] | 70 nM | – | – | – |
| CN1CC(=O)NC1=N [creatinine, reference compound] | – | – | – | displacement of [3H]DTG (10 uM): no significant displacement |
| Cc1ccccc1NC(=N)Nc1c(C)cccc1C [N-(2,6-dimethylphenyl)-N'-(2-methylphenyl)-guanidine] | 70 nM | found to possess the aforesaid in vitro [^3 H]DTG displacement activity | 70 nM | IC50 [3]: 70 ± 3 nM |
| Cc1ccccc1NC(=N)N[C@@H]1C[C@@H]2CC[C@H]1C2 (relative stereo) [N-((±)-endo-2-norbornyl)-N'-(2-methylphenyl)guanidine] | 6 nM | – | – | – |
| Clc1cccc(Cl)c1N=C1NCCN1 [Clonidine, reference compound] | – | – | – | IC50 (read-out: IC50 vs. [3H]DTG): > 10000 nM |
| N=C(NC1CC2CCC1C2)NC1CC2CCC1C2 (racemic) [N,N'-di-((±)-endo-2-norbornyl)guanidine] | 16 nM | found to possess the aforesaid in vitro [^3 H]DTG displacement activity | 16 nM | – |
| N=C(Nc1ccc(I)cc1)NC1C2CC3CC(C2)CC1C3 (centres unmarked) [N-(adamant-2-yl)-N'-(p-iodophenyl)guanidine] | – | found to possess the aforesaid in vitro [^3 H]DTG displacement activity | 2.7 nM | – |
| CN(C)CCCN1c2ccccc2CCc2ccccc21 [Imipramine, reference compound] | – | – | – | IC50 (read-out: IC50 vs. [3H]DTG): 520 ± 14 nM |
| CN(C)CCCN1c2ccccc2Sc2ccc(C(F)(F)F)cc21 [Trifluopromazine, reference compound] | – | – | – | IC50 (read-out: IC50 vs. [3H]DTG): 605 ± 67 nM |
| CNC(=N)N [methyl-guanidine, reference compound] | – | – | – | displacement of [3H]DTG (10 uM): no significant displacement |
| Cc1ccccc1NC(=N)Nc1ccc([N+](=O)[O-])cc1C [N-(2-Methyl-4-nitrophenyl)-N'-(2-methyl-phenyl)guanidine] | 37 nM | found to possess the aforesaid in vitro [^3 H]DTG displacement activity | 37 nM | IC50 [3]: 37 ± 5 nM |
| Cc1ccccc1NC(=N)Nc1ccccc1I [N-(2-iodophenyl)-N'-(2-methylphenyl)-guanidine] | 21 nM | found to possess the aforesaid in vitro [^3 H]DTG displacement activity | 21 nM | IC50 [3]: 21 ± 1 nM |
| Cc1ccccc1NC(=N)NC1C2CC3CC(C2)CC1C3 (centres unmarked) [N-(adamant-2-yl)-N'-(2-methylphenyl)guanidine] | 7 nM | – | – | – |
| N=C(Nc1ccccc1I)NC1C2CC3CC(C2)CC1C3 (centres unmarked) [N-(adamant-2-yl)-N'-(2-iodophenyl)guanidine] | 3.5 nM | – | 5.2 nM | – |
| N=C1Nc2ccccc2-c2ccccc2N1 [Bridge-DPG, 2-imino-1,3H-dibenzo[d,f]-[1,3]-diazepine] | – | – | > 10000 nM | – |
| CN(C)CCCN1c2ccccc2Sc2ccc(Cl)cc21 [Chlorpromazine, reference compound] | – | – | – | IC50 (read-out: IC50 binding values): 1480 ± 265 nM; IC50 (read-out: IC50 vs. [3H]DTG): 1480 nM |
| 1,1-dimethyl-4-guanidine [reference compound] | – | – | – | displacement of [3H]DTG: no significant displacement |
| N=C(N)NCCC(=O)O [beta-guanidino propionic acid, reference compound] | – | – | – | displacement of [3H]DTG (10 uM): no significant displacement |
| CNC(=N)NC [DMG, N,N'-di(methyl)guanidine, reference compound] | – | – | > 10000 nM | – |
| Cc1cc(Br)ccc1NC(=N)NC12CC3CC(CC(C3)C1)C2 [N-(adamant-1-yl)-N'-(p-bromo-o-tolyl)guanidine] | 2.7 nM | found to possess the aforesaid in vitro [^3 H]DTG displacement activity | – | – |
| Cc1cccc(C)c1NC(=N)Nc1c(C)cccc1C [DXG, N,N'-di-(2,6-dimethylphenyl)guanidine] | 90 nM | found to possess the aforesaid in vitro [^3 H]DTG displacement activity | 90 ± 18 nM | IC50 [3]: 90 ± 18 nM |
| C=CCN1CCC2(C)c3cc(O)ccc3CC1C2C (single isomer, unassigned; (+)) [(+)SKF 10,047, N-allyl-normetazocine, reference compound] | – | – | – | IC50 (read-out: IC50 vs. [3H]DTG): 625 ± 88 nM |
| O=C1CC2(CCCC2)CC(=O)N1CCCCN1CCN(c2nsc3ccccc23)CC1 [tiospirone, reference compound] | – | – | 233 ± 52 nM | – |
| Cc1ccccc1NC(=N)Nc1ccc(N)cc1C [NH2 --DTG, N-(2-Methyl-4-aminophenyl)-N'-(2-methylphenyl)-guanidine hydrochloride] | – | – | 280 ± 20 nM | IC50 [3]: 280 ± 14 nM |

| Compound | IC50 [1] | in vitro [3H]DTG displacement activity | IC50 [2] | further results |
| --- | --- | --- | --- | --- |
| C=CCN1CC[C@]23c4c5ccc(O)c4O[C@H]2C(=O)CC[C@@]3(O)[C@H]1C5 [naloxone, reference compound] | – | – | – | displacement of [3H]DTG (10 uM): no significant displacement |
| CN1CCc2cc3c(cc2[C@H]1[C@@H]1OC(=O)c2c1ccc1c2OCO1)OCO3 [bicuculline, reference compound] | – | – | – | displacement of [3H]DTG (10 uM): no significant displacement |
| N=C(Nc1ccccc1[N+](=O)[O-])NC12CC3CC(CC(C3)C1)C2 [N-(1-adamantyl)-N'-(o-nitrophenyl)guanidine] | 30 nM | found to possess the aforesaid in vitro [^3 H]DTG displacement activity | 30 nM | – |
| CC12CC3CC(C)(C1)CC(NC(=N)Nc1ccccc1I)(C3)C2 [N-(3,5-dimethyl-1-adamantanyl)-N'-(o-iodophenyl)guanidine] | 16 nM | found to possess the aforesaid in vitro [^3 H]DTG displacement activity | 16 nM | – |
| Cc1ccccc1NC(=N)N[C@H]1C[C@@H]2CC[C@@]1(C)C2(C)C (relative stereo) [N-(exo-2-isobornyl)-N'-(o-tolyl)guanidine] | 25 nM | found to possess the aforesaid in vitro [^3 H]DTG displacement activity | 25 nM | – |
| dynorphin A [reference compound] | – | – | – | displacement of [3H]DTG (10 uM): no significant displacement |
| CC(C)(C)NC(=N)Nc1ccccc1I [N-(o-iodophenyl)-N'-(t-butyl)guanidine] | 20 nM | found to possess the aforesaid in vitro [^3 H]DTG displacement activity | 20 nM | – |
| N=C(N)NCCCC(=O)O [gamma-guanidino butyric acid, reference compound] | – | – | – | displacement of [3H]DTG (10 uM): no significant displacement |
| CN(CC(=O)O)C(=N)N [creatine, reference compound] | – | – | – | displacement of [3H]DTG (10 uM): no significant displacement |
| CN1CCc2cccc3c2[C@H]1Cc1ccc(O)c(O)c1-3 [apomorphine, reference compound] | – | – | – | displacement of [3H]DTG (10 uM): no significant displacement |
| N=C(NC1CCCCC1)NC1CCCCC1 [N,N'-di(cyclohexyl)guanidine] | 71 nM | found to possess the aforesaid in vitro [^3 H]DTG displacement activity | 71 nM | IC50 [3]: 71 ± 7 nM |
| Cc1ccccc1NC(=N)NC12CC3CC(C)(CC(C)(C3)C1)C2 [N-(3,5-dimethyladamantan-1-yl)-N'-(o-tolyl)guanidine] | 15 nM | found to possess the aforesaid in vitro [^3 H]DTG displacement activity | 15 nM | – |
| C[N+](C)(C)CCCCCC[N+](C)(C)C [hexamethonium, reference compound] | – | – | – | displacement of [3H]DTG (10 uM): no significant displacement |
| Cc1ccccc1NC(=N)Nc1ccc(N=[N+]=[N-])cc1C [N-(2-Methyl-4-azido-phenyl)-N'-(2-methylphenyl)guanidine] | 20 nM | found to possess the aforesaid in vitro [^3 H]DTG displacement activity | – | IC50 [3]: 20 ± 1 nM |
| beta-endorphin [reference compound] | – | – | – | displacement of [3H]DTG (10 uM): no significant displacement |
| O=C(CCCN1CCC(O)(c2ccc(Cl)cc2)CC1)c1ccc(F)cc1 [Haloperidol, reference compound] | – | – | – | affinity for / displacement at the [3H]DTG binding site: all specific binding is displaceable by haloperidol; also recorded: highest displacement potency of all drugs tested |
| Cc1cc(Br)ccc1NC(=N)Nc1ccc(Br)cc1C [Example 4-Br--DTG, N,N'-Di-(4-bromo-2-methylphenyl)guanidine] | 37 nM | found to possess the aforesaid in vitro [^3 H]DTG displacement activity | 37 nM | IC50 [3]: 37 ± 3 nM |
| N=C(Nc1ccccc1I)N[C@H]1C[C@@H]2CC[C@H]1C2 (relative stereo) [N-(exo-2-norbornyl)-N'-(2-iodophenyl)guanidine] | 4 nM | – | – | – |
| CC1(C)[C@H]2CC[C@]1(C)[C@@H](NC(=N)Nc1ccccc1I)C2 (relative stereo) [N-(exo-2-isobornyl)-N'-(o-iodophenyl)guanidine] | 18 nM | found to possess the aforesaid in vitro [^3 H]DTG displacement activity | 18 nM | – |
| N=C(NC1CC2CCC1C2)NC1CC2CCC1C2 (stereo not drawn) [N,N'-di-(exo-2-norbornyl)guanidine] | 22 nM | found to possess the aforesaid in vitro [^3 H]DTG displacement activity | 22 nM | – |
| CCCCNC(=N)NCCCC [N,N'-di-n-butyl-guanidine] | – | found to possess the aforesaid in vitro [^3 H]DTG displacement activity | – | IC50 [3]: 750 ± 33 nM |
| CN/C(=N/CCSCc1nc[nH]c1C)NC#N [cimetidine, reference compound] | – | – | – | displacement of [3H]DTG: no significant displacement |
| N=C(NCc1ccccc1)NCc1ccccc1 [N,N'-dibenzylguanidine] | 90 nM | found to possess the aforesaid in vitro [^3 H]DTG displacement activity | 90 nM | – |
| N=C(N)NCC(=O)O [guanidino acetic acid, reference compound] | – | – | – | displacement of [3H]DTG (10 uM): no significant displacement |
| CN(C)CCC=C1c2ccccc2CCc2ccccc21 [Amitriptyline, reference compound] | – | – | – | IC50 (read-out: IC50 vs. [3H]DTG, Table III, ± SEM, average from 2-4 separate experiments in triplicate): 300 ± 7 nM |
